Measurements from patent publication US10821115B2, “Compounds that inhibit Mcl-1 protein” (priority 2017, dated 2020).
Like-named read-outs stand apart in the source and are kept apart here.

Tests used:
[1] = test system: human multiple myeloma cell line, OPM-2; experiment: Cell viability assay (OPM-2 10 FBS), CellTiter-Glo; format: cell-based
How it was run: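 Steps: plate cells at 3000/well in 10% FBS growth medium, add serially diluted compound, incubate 16 h at 37 °C with 5% CO2, add detection reagent and read luminescence after 25 min. A 4-parameter logistic model gives IC50.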

[2] = target: recombinant human Mcl-1 (residues 171-327) / Bim interaction (Homo sapiens (Human), UniProt Q07820); experiment: biochemical; format: binding; conditions: read-out: Mcl-1 HTRF IC50
[3] = Homo sapiens, OPM-2, 16 h, read-out: OPM-2 10% FBS IC50 IP, OPM-2 cells, 10% FBS, 16 h incubation
[4] = 0.1 nM Mcl-1(171-327), 0.05 nM biotin-Bim (51-76)
[5] = read-out: OPM-2 10% FBS IC50 IP, OPM-2 cells, 10% FBS, 16 h, CellTiter-Glo
[6] = TR-FRET, Mcl-1(171-327) / biotin-Bim (51-76)
[7] = Homo sapiens, OPM-2, 16 h, read-out: OPM-2 10% FBS IC50 IP, OPM-2 cells, 10% FBS, 16 h, CellTiter-Glo
[8] = read-out: OPM-2 10% FBS IC50 IP, OPM-2 cells, 10% FBS, 16 h incubation

recombinant human Mcl-1 (residues 171-327) / Bim interaction, sequence (Q07820 171-327): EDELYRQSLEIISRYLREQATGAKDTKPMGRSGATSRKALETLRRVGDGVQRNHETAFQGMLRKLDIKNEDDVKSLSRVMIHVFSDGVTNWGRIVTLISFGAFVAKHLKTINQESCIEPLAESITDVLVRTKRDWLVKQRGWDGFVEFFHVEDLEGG

Compound | IC50 [2, 4] | IC50 [2, 6] | IC50 [1, 7] | other results
COCCN1[C@H](C)CN(C[C@]2(OC)/C=C/C[C@H](C)[C@@H](C)S(=O)(=O)NC(=O)c3ccc4c(c3)N(C[C@@H]3CC[C@H]32)C[C@@]2(CCCc3cc(Cl)ccc32)CO4)C[C@@H]1C [Example 324, (1S,3′R,6′R,7′S,8′E,11′S,12′R)-6-chloro-7′-methoxy-7′-(((3R,5S)-4-(2-methoxyethyl)-3,5-dimethyl-1-piperazinyl)methyl)-11′,12′-dimethyl-3,4-dihydro-2H,15′H-spiro[naphthalene-1,22′-[20]oxa[13]thia[1,14]diazatetracyclo [14.7.2.0~3,6~.0~19,24~]pentacosa[8,16,18,24]tetraen]-15′-one 13′,13′-dioxide] | 0.136 nM | – | – | IC50 [1, 3]: 57 nM
CO[C@@]1(C[C@@H](O)C(C)C)/C=C/C[C@H](C)[C@@H](C)S(=O)(=O)NC(=O)c2ccc3c(c2)N(C[C@@H]2CC[C@H]21)C[C@@]1(CCCc2cc(Cl)ccc21)CO3 (single isomer, unassigned) [Example 100366] | – | 0.198 nM | – | IC50 [1, 5]: 168 nM
C[C@@H]1[C@@H](C)C/C=C/[C@@](O)(CC(=O)N2CCCCC2)[C@@H]2CC[C@H]2CN2C[C@@]3(CCCc4cc(Cl)ccc43)COc3ccc(cc32)C(=O)NS1(=O)=O [Example 100258, (1S,3′R,6′R,7′S,8′E,11′S,12′R)-6-chloro-7′-hydroxy-11′,12′-dimethyl-7′-(2-oxo-2-(1-piperidinyl)ethyl)-3,4-dihydro-2H,15′H-spiro[naphthalene-1,22′-[20]oxa[13]thia[1,14]diazatetracyclo [14.7.2.0~3,6~.0~19,24~]pentacosa[8,16,18,24]tetraen]-15′-one 13′,13′-dioxide] | – | 0.553 nM | – | IC50 [1, 5]: 519 nM
C[C@@H]1[C@@H](C)C/C=C/[C@]2(CNCCO2)[C@@H]2CC[C@H]2CN2C[C@@]3(CCCc4cc(Cl)ccc43)COc3ccc(cc32)C(=O)NS1(=O)=O [Example 134, (1S,3′R,6′R,7′R,8′E,11′S,12′R)-6-chloro-11′,12′-dimethyl-3,4-dihydro-2H,15′H-dispiro[naphthalene-1,22′-[20]oxa[13]thia[1,14]diazatetracyclo [14.7.2.0~3,6~.0~19,24~]pentacosa[8,16,18,24]tetraene-7′,2″-[1,4]oxazinan]-15′-one 13′,13′-dioxide] | 4.64 nM | – | – | IC50 [1, 3]: 3000 nM
CO[C@@]1(CCO)/C=C/C[C@H](C)[C@@H](C)S(=O)(=O)NC(=O)c2ccc3c(c2)N(C[C@@H]2CC[C@H]21)C[C@@]1(CCCc2cc(Cl)ccc21)CO3 [Example 100218, (1S,3′R,6′R,7′S,8′E,11′S,12′R)-6-chloro-7′-(2-hydroxyethyl)-7′-methoxy-11′,12′-dimethyl-3,4-dihydro-2H,15′H-spiro[naphthalene-1,22′-[20]oxa[13]thia[1,14]diazatetracyclo [14.7.2.0~3,6~.0~19,24~]pentacosa[8,16,18,24]tetraen]-15′-one 13′,13′-dioxide] | – | 0.621 nM | 675 nM | –
(1 S,3′R,6′R,7′R,8′E,11′S,12′R)-6-chloro-7′-methoxy-11′-methyl-12′-(2-(((2-methyl-2-propanyl)(diphenyl)silyl)oxy)ethyl)-7′-((9aR)-octahydro-2H-pyrido[1,2-a]pyrazin-2-ylmethyl)-3,4-dihydro-2H, 15′H-spiro[naphthalene-1,22′-[20]oxa[13]thia[1,14]diazatetracyclo[14.7.2.0-3,6˜.0˜19,24˜]pentacosa[8,16,18,24]tetraen]-15′-one 13′,13′-dioxide [Example 359] | 2.08 nM | – | – | IC50 [1, 8]: > 33300 nM
COC(=O)N1CCN(C[C@]2(OC)/C=C/C[C@H](C)[C@@H](C)S(=O)(=O)NC(=O)c3ccc4c(c3)N(C[C@@H]3CC[C@H]32)C[C@@]2(CCCc3cc(Cl)ccc32)CO4)CC1 [Example 266, methyl 4-(((1S,3′R,6′R,7′S,8′E,11′S, 12′R)-6-chloro-7′-methoxy-11′,12′-dimethyl-13′,13′-dioxido-15′-oxo-3,4-dihydro-2H-spiro[naphthalene-1,22′-[20]oxa[13]thia[1,14]diazatetracyclo [14.7.2.0~3,6~.0~19,24~]pentacosa[8,16,18,24]tetraen]-7′-yl)methyl)-1-piperazinecarboxylate] | 0.282 nM | – | – | IC50 [1, 3]: 723 nM
CC#C[C@]1(O)CCC[C@H](C)[C@@H](C)S(=O)(=O)NC(=O)c2ccc3c(c2)N(C[C@@H]2CC[C@H]21)C[C@@]1(CCCc2cc(Cl)ccc21)CO3 [Example 100267, (1S,3′R,6′R,7′S,11′S,12′R)-6-chloro-7′-hydroxy-11′,12′-dimethyl-7′-(1-propyn-1-yl)-3,4-dihydro-2H,15′H-spiro[naphthalene-1,22′-[20]oxa[13]thia[1,14]diazatetracyclo [14.7.2.0~3,6~.0~19,24~]pentacosa[16,18,24]trien]-15′-one 13′,13′-dioxide] | – | – | – | IC50 [1, 5]: 274 nM; IC50 [2]: 0.166 nM
COC[C@@H]1[C@@H](C)C/C=C/[C@](CN2CCN3CCOC[C@@H]3C2)(OC)[C@@H]2CC[C@H]2CN2C[C@@]3(CCCc4cc(Cl)ccc43)COc3ccc(cc32)C(=O)NS1(=O)=O [Example 168, (1S,3′R,6′R,7′S,8′E,11′S,12′S)-6-chloro-7′-((9aS)-hexahydropyrazino[2,1-c][1,4]oxazin-8(1H)-ylmethyl)-7′-methoxy-12′-(methoxymethyl)-11′-methyl-3,4-dihydro-2H,15′H-spiro[naphthalene-1,22′-[20]oxa[13]thia[1,14]diazatetracyclo [14.7.2.0~3,6~.0~19,24~]pentacosa[8,16,18,24]tetraen]-15′-one 13′,13′-dioxide] | 0.138 nM | – | – | IC50 [1, 3]: 52 nM
CCN1CCN(C[C@]2(OC)/C=C/C[C@H](C)[C@@H](C)S(=O)(=O)NC(=O)c3ccc4c(c3)N(C[C@@H]3CC[C@H]32)C[C@@]2(CCCc3cc(Cl)ccc32)CO4)CC1 [Example 247, (1S,3′R,6′R,7′S,8′E,11′S,12′R)-6-chloro-7′-((4-ethyl-1-piperazinyl)methyl)-7′-methoxy-11′,12′-dimethyl-3,4-dihydro-2H,15′H-spiro[naphthalene-1,22′-[20]oxa[13]thia[1,14]diazatetracyclo [14.7.2.0~3,6~.0~19,24~]pentacosa[8,16,18,24]tetraen]-15′-one 13′,13′-dioxide] | 0.129 nM | – | – | IC50 [1, 3]: 107 nM
CO[C@]1(CN2CC[C@H]3CCCC[C@@H]3C2)/C=C/C[C@H](C)[C@@H](C)S(=O)(=O)NC(=O)c2ccc3c(c2)N(C[C@@H]2CC[C@H]21)C[C@@]1(CCCc2cc(Cl)ccc21)CO3 (single isomer, unassigned) [Example 89] | 3.75 nM | – | – | IC50 [1, 8]: 8210 nM
C[C@@H]1[C@@H](C)C/C=C/[C@@](O)(C#CCN2CCOCC2)[C@@H]2CC[C@H]2CN2C[C@@]3(CCCc4cc(Cl)ccc43)COc3ccc(cc32)C(=O)NS1(=O)=O (single isomer, unassigned) [Example 100018] | – | 0.061 nM | – | IC50 [1, 5]: 49 nM
C[C@@H]1[C@@H](C)CCC[C@@](O)(c2cccnc2)[C@@H]2CC[C@H]2CN2C[C@@]3(CCCc4cc(Cl)ccc43)COc3ccc(cc32)C(=O)NS1(=O)=O [Example 100185, (1S,3′R,6′R,7′S,11′S,12′R)-6-chloro-7′-hydroxy-11′,12′-dimethyl-7′-(3-pyridinyl)-3,4-dihydro-2H,15′H-spiro[naphthalene-1,22′-[20]oxa[13]thia[1,14]diazatetracyclo [14.7.2.0~3,6~.0~19,24~]pentacosa[16,18,24]trien]-15′-one 13′,13′-dioxide] | – | – | 5130 nM | IC50 [2]: 8.88 nM
C[C@@H]1[C@@H](C)CCC[C@@](O)(CC#N)[C@@H]2CC[C@H]2CN2C[C@@]3(CCCc4cc(Cl)ccc43)COc3ccc(cc32)C(=O)NS1(=O)=O (single isomer, unassigned) [Example 100081] | – | 7.33 nM | 5930 nM | –
C[C@@H]1[C@@H](C)CCC[C@](O)(CC(=O)N2CCN(C)CC2)[C@@H]2CC[C@H]2CN2C[C@@]3(CCCc4cc(Cl)ccc43)COc3ccc(cc32)C(=O)NS1(=O)=O (single isomer, unassigned) [Example 100168] | – | 0.249 nM | 196 nM | –
COCCOC[C@]1(O)/C=C/C[C@H](C)[C@@H](C)S(=O)(=O)NC(=O)c2ccc3c(c2)N(C[C@@H]2CC[C@H]21)C[C@@]1(CCCc2cc(Cl)ccc21)CO3 [Example 100444, (1S,3′R,6′R,7′S,8′E,11′S,12′R)-6-chloro-7′-hydroxy-7′-((2-methoxyethoxy)methyl)-11′,12′-dimethyl-3,4-dihydro-2H,15′H-spiro[naphthalene-1,22′-[20]oxa[13]thia[1,14]diazatetracyclo [14.7.2.0~3,6~.0~19,24~]pentacosa[8,16,18,24]tetraen]-15′-one 13′,13′-dioxide] | – | 0.098 nM | 646 nM | –
CO[C@@]1(CC(=O)C(C)C)/C=C/C[C@H](C)[C@@H](C)S(=O)(=O)NC(=O)c2ccc3c(c2)N(C[C@@H]2CC[C@H]21)C[C@@]1(CCCc2cc(Cl)ccc21)CO3 [Example 100373, (1S,3′R,6′R,7′S,8′E,11′S,12′R)-6-chloro-7′-methoxy-11′,12′-dimethyl-7′-(3-methyl-2-oxobutyl)-3,4-dihydro-2H,15′H-spiro[naphthalene-1,22′-[20]oxa[13]thia[1,14]diazatetracyclo [14.7.2.0~3,6~.0~19,24~]pentacosa[8,16,18,24]tetraen]-15′-one 13′,13′-dioxide] | – | – | 736 nM | IC50 [2]: 0.318 nM
